Results published in paper PMC9221442, “Design, Synthesis and Characterization of [G10a]-Temporin SHa Dendrimers as Dual Inhibitors of Cancer and Pathogenic Microbes” (Biomolecules, 2022).
≈ marks a conversion by molar mass, not a printed value. Entries after “also recorded” stand apart in the source; their conditions may differ. Where two headings read alike, the source gives them in different places. Where a SMILES comes first, the peptide text is derived from it.

Columns and labels:
[1] = system: Acinetobacter baumannii (DSM 30007); format: cell-based
Experimental: (§1) Experiments were performed in triplicate (n = 3).

[2] = system: Bacillus subtilis (ATCC 6633); format: cell-based
Experimental: as §1

[3] = system: Enterobacter cloacae (DSM 30054); format: cell-based
Experimental: as §1

[4] = system: Enterococcus faecalis (DSM 2570); format: cell-based
Experimental: as §1

[5] = system: Enterococcus faecium (DSM 20477); format: cell-based; details: DSM 20477
Experimental: as §1

[6] = system: Escherichia coli (ATCC 8739); format: cell-based
Experimental: as §1

[7] = system: Helicobacter pylori (ATCC 43504); format: cell-based
Experimental: as §1

[8] = system: Klebsiella pneumoniae (DSM 26371); format: cell-based
Experimental: as §1

[9] = system: Pseudomonas aeruginosa (ATCC 9027); format: cell-based
Experimental: as §1

[10] = system: Staphylococcus aureus (ATCC 6538); format: cell-based
Experimental: as §1

[11] = system: breast cancer cells MCF-7; format: cell-based, human; details: 48 h
Experimental: (§2) The antiproliferative effect of the peptides was determined by using human cells, as previously described. Human cancer cells used in this experiment were ovarian cancer cells A2780 (obtained from ECACC), breast cancer cells MCF-7 (obtained from ATCC), liver cancer cells HepG2 (obtained from ATCC), lung cancer cells A549 (obtained from ATCC), pancreatic cancer cells MiaPaCa (obtained from ATCC), prostate cancer cells PC-3 (obtained from ATCC), and skin cancer cells MNT-1 (generous gift from the National Institute of Health (NIH). Normal human cells used were human lung fibroblasts IMR-90 (obtained from ATCC). All cells were cultured in DMEM which was supplemented with 10% fetal bovine serum (FBS), 1% L-glutamine, and 1% antibiotics (all from Invitrogen) at 37 °C in 5% CO2 incubator. For cytotoxicity assay, cells were maintained in 25 cm^2 flasks. Cells were separated from flasks using trypsin-EDTA solution (from Thermofisher) and counted using Malassez chamber and diluted in culture medium before seeding into 96-well cell-culture plates (Greiner bio-one, Paris, France) at approximately 3000 cells/well. Cells were then treated with increasing concentration of peptides diluted in culture medium (1:2 serial dilution, from 100 µM to 0 µM). After 48 h, medium was aspirated and number of viable cells was colorimetrically determined using resazurin-based assay following manufacturer’s instructions. The fluorescence intensity was measured using microplate reader (Biotek, Santa Clara, CA, USA, Synergy Mx) with an excitation wavelength of 530 nm and an emission wavelength of 590 nm. The fluorescence values were normalized by the controls (untreated cells) and expressed as percent of proliferation. The IC50 values of peptides (i.e., the concentrations causing 50% inhibition of cell proliferation) were determined using GraphPad® Prism 7 software.

liver cancer cells HepG2 = format: cell-based, human; details: 48 h
Experimental: as §2

lung cancer cells A549 = format: cell-based, human; details: 48 h
Experimental: as §2

[12] = system: ovarian cancer cells A2780; format: cell-based, human; details: 48 h
Experimental: as §2

[13] = system: pancreatic cancer cells MiaPaCa; format: cell-based, human; details: 48 h
Experimental: as §2

[14] = system: prostate cancer cells PC-3; format: cell-based, human; details: 48 h
Experimental: as §2

skin cancer cells MNT-1 = format: cell-based, human; details: 48 h
Experimental: as §2

human cancer cells = format: cell-based; details: 48 h
Experimental: as §2

[15] = system: human lung fibroblasts IMR-90; format: cell-based; details: 48 h
Experimental: as §2

Hemolysis assay = format: cell-based, human; details: human
Experimental: (§3) The ability of dendrimers and peptides to cause hemolysis was evaluated using human whole red blood cells. Briefly, fresh human erythrocytes (obtained from Divbio Science Europe, NL) were washed 3 times by centrifugation at 800× g for 5 min with sterile phosphate buffer saline (PBS, pH 7.4). The washed erythrocytes were resuspended in complete culture media (DMEM supplemented with 10% FBS) to a final concentration of 8%. Human erythrocytes were then added into sterile 96-well microplates (150 µL per well) and were exposed to increasing concentrations of peptides or dendrimers. After 1 h incubation at 37 °C, plates were centrifuged at 800× g for 5 min. Then, 100 µL of supernatant were carefully transferred to a new 96-well microplate and absorbance was measured at 450 nm using microplate reader. Triton-X100 at 0.1% (v/v) was used as positive control giving 100% hemolysis. The HC50 values of peptides and dendrimers (i.e., the concentration of compound causing 50% of hemolysis) were calculated using GraphPad® Prism 7 software.

human red blood cells = experiment: Hemolysis assay; format: cell-based
Experimental: as §3

[16] = Stability study at different temperatures (absorbance spectrum); details: room temperature, 35 °C, 40 °C, 50 °C and 60 °C
Experimental: The stability of dendrimers at different pH values and temperatures was also determined. For this, a 510 model digital pH meter (Oakton Eutech) with working electrode of glass material and a Ag/AgCl as reference electrode was used for the pH record. Dilute solutions of HCl and NaOH were added to adjust the pH of the solution from 2 to 12. Similarly, stability of monomer [G10a]-SHa and its three dendrimers was checked by heating the peptide dendrimers on different temperature ranges, i.e., room temperature, 35 °C, 40 °C, 50 °C and 60 °C.

[17] = Stability study at different pH; details: pH 2 to pH 14
Experimental: The stability of dendrimers at different pH values and temperatures was also determined. For this, a 510 model digital pH meter (Oakton Eutech) with working electrode of glass material and a Ag/AgCl as reference electrode was used for the pH record. […] Similarly, stability of monomer [G10a]-SHa and its three dendrimers was checked by heating the peptide dendrimers on different temperature ranges, i.e., room temperature, 35 °C, 40 °C, 50 °C and 60 °C.

[18] = Dynamic light scattering (zetasizer); format: physicochemical
Experimental: The dendrimeric solutions of peptides were transferred into transparent cuvette with care to remove bubble formation. The sample was then transferred to the cell holder and study was performed at 90° scattering angle at room temperature. The standard viscosity and refractive index were kept constant and kept at 1.0, 1.33 and 80.4 mPa, respectively.

H. pylori = system: H. pylori; set-up: method as in PMID 31614561; details: cited from earlier work
[19] = system: methicillin-resistant Staphylococcus aureus (MRSA); set-up: method as in PMID 35092568; details: cited from earlier work
[20] = cited from earlier work

CC[C@H](C)[C@H](NC(=O)CNC(=O)[C@H](CO)NC(=O)[C@H](CC(C)C)NC(=O)[C@@H](N)Cc1ccccc1)C(=O)N[C@H](C(=O)NCC(=O)N[C@@H](CCSC)C(=O)N[C@@H](CC(C)C)C(=O)N[C@H](C)C(=O)N[C@@H](CCCCN)C(=O)N[C@@H](CC(C)C)C(=O)N[C@@H](Cc1ccccc1)C(N)=O)C(C)C [[G10a]-SHa, H-Phe^1-Leu^2-Ser^3-Gly^4-Ile^5-Val^6-Gly^7-Met^8-Leu^9-D-Ala^10-Lys^11-Leu^12-Phe^13-NH2] (HELM PEPTIDE1{F.L.S.G.I.V.G.M.L.[dA].K.L.F.[am]}$$$$V2.0)
minimal inhibitory concentration (MIC) ([1]; A. baumannii (DSM 30007), 18–24 h, aerobic): 12.5 µM (≈ 17.4 µg/mL) | minimal inhibitory concentration (MIC) ([1]; DSM 30007): 12.5 µM (≈ 17.4 µg/mL) | minimal inhibitory concentration (MIC) ([2]; ATCC 6633): 3.12 µM (≈ 4.35 µg/mL) | minimal inhibitory concentration (MIC) ([2]; B. subtilis (ATCC 6633), 18–24 h, aerobic): 3.12 µM (≈ 4.35 µg/mL) | minimal inhibitory concentration (MIC) ([3]; DSM 30054): >100 µM | minimal inhibitory concentration (MIC) ([3]; E. cloacae (DSM 30054), 18–24 h, aerobic): > 100 µM | minimal inhibitory concentration (MIC) ([4]; DSM 2570): 25 µM (≈ 34.9 µg/mL) | minimal inhibitory concentration (MIC) ([4]; E. faecalis (DSM 2570), 18–24 h, micro-aerobic): 25 µM (≈ 34.9 µg/mL) | minimal inhibitory concentration (MIC) [5]: >100 µM | minimal inhibitory concentration (MIC) ([6]; ATCC 8739): 100 µM (≈ 139 µg/mL) | minimal inhibitory concentration (MIC) ([6]; E. coli (ATCC 8739), 18–24 h, aerobic): 100 µM (≈ 139 µg/mL) | minimal inhibitory concentration (MIC) ([7]; ATCC 43504): 3.12 µM (≈ 4.35 µg/mL) | minimal inhibitory concentration (MIC) ([7]; H. pylori (ATCC 43504), 18–24 h, micro-aerobic): 3.12 µM (≈ 4.35 µg/mL) | minimal inhibitory concentration (MIC) ([8]; DSM 26371): 100 µM (≈ 139 µg/mL) | minimal inhibitory concentration (MIC) ([8]; K. pneumoniae (DSM 26371), 18–24 h): 100 µM (≈ 139 µg/mL) | minimal inhibitory concentration (MIC) ([9]; ATCC 9027): >100 µM | minimal inhibitory concentration (MIC) ([9]; P. aeruginosa (ATCC 9027), 18–24 h, aerobic): > 100 µM | minimal inhibitory concentration (MIC) ([10]; ATCC 6538): 3.12 µM (≈ 4.35 µg/mL) | minimal inhibitory concentration (MIC) ([10]; S. aureus (ATCC 6538), 18–24 h, aerobic): 3.12 µM (≈ 4.35 µg/mL) | IC50 [11]: 15.1 ± 8.51 µM | IC50 (liver cancer cells HepG2): 31.6 ± 1.56 µM | IC50 (lung cancer cells A549): 14.5 ± 1.44 µM | IC50 [12]: 14.8 ± 7.35 µM | IC50 [13]: 22.4 ± 6.07 µM | IC50 [14]: 13 ± 1.99 µM | IC50 (skin cancer cells MNT-1): 15.2 ± 0.8 µM | IC50 (human cancer cells): 18.1 ± 6.68 µM | IC50 [15]: 37.2 ± 2.88 µM | hemolysis at 100 µM (Hemolysis assay): 102 ± 6.18% | hemolytic activity (in words) (human red blood cells): high hemolytic activity | estimated HC50 (concentration causing 50% of hemolysis) (human red blood cells; red cells of human, 1 h): 43.66 ± 1.01 µM | stability at different temperatures [16]: considerable stability up to 60 °C; also recorded: higher stability up to 60 °C | stability at different pH [17]: significantly stable at pH values up to 10 and unstable at high pH values of 12 and 14 | Pdi Values (polydispersity index) ([18]; DLS): 0.628 | Z-Average ([18]; DLS, room temperature): 63.25 nm·days | Zeta Potential ([18]; zetasizer): −34.1 mV | antibacterial activity (in words) (H. pylori): active | antibacterial activity (in words) [19]: active | serum stability (in words) [20]: good serum stability
